Results reported in US11149037B2, “Pyrazole MAGL inhibitors” (H. Lundbeck A/S, priority 2017, dated 2021).

What was measured:
[1] = biological target: FAAH (Homo sapiens (Human), UniProt O00519); assay: In vitro competitive activity-based protein profiling, human proteomes (prefrontal cortex or PC3 cell membrane fractions); type: biochemical; conditions: human proteome; for inhibition at 1 µM: read-out: FAAH % inh. 1 μM (human)
Procedure, shortened: (§1)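 Activity of MAGL and FAAH was quantified from fluorescent gel band intensities. Beforehand, inhibitors at several concentrations competed against subsequent probe labelling (FP-Rh, JW912 or HT-01) in species-matched proteomes, each step 30 min at 37° C.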

[2] = biological target: MAGL (Homo sapiens (Human), UniProt Q99685); assay: as above; type: biochemical; conditions: human proteome; for inhibition at 1 µM: read-out: MAGL % inh. 1 μM (human)
Procedure, shortened: as §1

[3] = biological target: T1, FAAH (Mus musculus (Mouse), UniProt O08914); assay: In vitro competitive activity-based protein profiling, mouse proteomes (brain membrane fraction or cell lysates); type: biochemical; conditions: mouse proteome, read-out: FAAH % inh. 1 μM (mouse)
Procedure, shortened: as §1

[4] = biological target: T2, MAGL (Mus musculus (Mouse), UniProt O35678); assay: as above; type: biochemical; conditions: mouse proteome, read-out: MAGL % inh. 1 μM (mouse)
Procedure, shortened: as §1

[5] = biological target: T1, FAAH; assay: Mouse brain proteomes from inhibitor treated mice (oral gavage, sacrificed 4 h after administration); type: in vivo; conditions: 5 mg/kg oral gavage
Description: (§2) Preparation of Mouse Brain Proteomes from Inhibitor Treated Mice.
(§3) Inhibitors were administered to wild-type C57B1/6J by oral gavage in a vehicle of polyethylene glycol. Each animal was sacrificed 4 h following administration and brain proteomes were prepared and analyzed according to previously established methods (See Niphakis, M. J., et al. (2011) ACS Chem. Neurosci. and Long, J. Z., et al. Nat. Chem. Biol. 5:37-44).

[6] = biological target: T2, MAGL; assay: as above; type: in vivo; conditions: 5 mg/kg oral gavage
Description: as §2, §3

T1 sequence (O08914 whole entry): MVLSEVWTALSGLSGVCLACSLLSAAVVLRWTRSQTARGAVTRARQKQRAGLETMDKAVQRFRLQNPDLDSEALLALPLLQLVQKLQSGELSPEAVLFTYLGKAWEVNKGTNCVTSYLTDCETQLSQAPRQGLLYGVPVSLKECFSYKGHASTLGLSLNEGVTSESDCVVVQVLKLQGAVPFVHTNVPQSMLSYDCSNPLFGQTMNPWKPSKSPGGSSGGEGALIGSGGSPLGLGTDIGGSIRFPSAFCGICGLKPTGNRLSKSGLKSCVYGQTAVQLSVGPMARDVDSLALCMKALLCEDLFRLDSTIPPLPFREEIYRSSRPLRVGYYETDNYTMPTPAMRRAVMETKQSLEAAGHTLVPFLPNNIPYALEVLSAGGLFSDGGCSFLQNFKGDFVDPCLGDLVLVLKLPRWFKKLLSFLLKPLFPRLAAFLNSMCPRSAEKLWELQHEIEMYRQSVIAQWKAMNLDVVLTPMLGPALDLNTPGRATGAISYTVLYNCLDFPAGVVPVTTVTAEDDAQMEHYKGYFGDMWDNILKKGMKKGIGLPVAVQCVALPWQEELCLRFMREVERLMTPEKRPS
Sequence of MAGL (Homo sapiens (Human), UniProt Q99685) (Q99685 whole entry): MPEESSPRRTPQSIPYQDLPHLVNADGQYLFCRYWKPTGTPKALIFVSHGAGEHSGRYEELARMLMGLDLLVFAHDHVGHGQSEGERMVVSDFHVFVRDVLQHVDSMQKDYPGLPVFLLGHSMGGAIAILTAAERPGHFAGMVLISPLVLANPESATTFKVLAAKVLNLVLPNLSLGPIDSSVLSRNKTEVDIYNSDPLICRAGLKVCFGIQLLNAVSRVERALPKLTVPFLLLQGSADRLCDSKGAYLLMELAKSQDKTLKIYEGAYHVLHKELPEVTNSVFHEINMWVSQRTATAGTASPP
Sequence of FAAH (Homo sapiens (Human), UniProt O00519) (O00519 whole entry): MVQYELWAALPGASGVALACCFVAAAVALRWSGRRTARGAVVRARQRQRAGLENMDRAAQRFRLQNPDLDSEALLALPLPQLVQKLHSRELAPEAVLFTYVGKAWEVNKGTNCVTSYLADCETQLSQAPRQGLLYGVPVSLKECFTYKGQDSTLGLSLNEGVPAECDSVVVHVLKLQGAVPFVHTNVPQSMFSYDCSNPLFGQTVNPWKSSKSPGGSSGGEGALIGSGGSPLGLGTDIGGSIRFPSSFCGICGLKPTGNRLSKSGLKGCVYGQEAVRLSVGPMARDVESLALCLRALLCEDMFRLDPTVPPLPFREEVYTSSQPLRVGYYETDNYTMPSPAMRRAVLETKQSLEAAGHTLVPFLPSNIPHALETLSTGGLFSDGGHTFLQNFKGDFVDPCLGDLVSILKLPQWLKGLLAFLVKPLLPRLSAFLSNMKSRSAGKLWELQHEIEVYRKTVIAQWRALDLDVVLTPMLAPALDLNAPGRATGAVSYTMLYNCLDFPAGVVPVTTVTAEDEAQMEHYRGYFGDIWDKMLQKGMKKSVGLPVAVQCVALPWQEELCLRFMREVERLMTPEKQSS
T2 sequence (O35678 whole entry): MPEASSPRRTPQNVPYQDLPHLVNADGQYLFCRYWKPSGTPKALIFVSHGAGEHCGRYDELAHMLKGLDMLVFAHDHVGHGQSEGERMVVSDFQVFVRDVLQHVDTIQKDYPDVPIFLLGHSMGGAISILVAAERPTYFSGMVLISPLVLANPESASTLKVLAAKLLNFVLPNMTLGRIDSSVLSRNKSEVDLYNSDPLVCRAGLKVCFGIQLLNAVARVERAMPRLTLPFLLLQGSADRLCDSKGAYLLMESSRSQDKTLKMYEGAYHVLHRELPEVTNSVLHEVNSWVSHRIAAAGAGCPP

inhibition at 1 µM [1] [%]	inhibition at 1 µM [2] [%]	inhibition at 1 µM [3] [%]	inhibition at 1 µM [4] [%]	IC50 [1] [µM]	IC50 [2] [µM]	SMILES	FAAH % inh. 5 mg/kg (mouse) [5]	MAGL % inh. 5 mg/kg (mouse) [6]
0 to 25	> 75	0 to 25	> 75	–	–	CC(=O)Nc1ccn(C(=O)N2CCN(Cc3ccc(Cl)cc3OC3(C(=O)O)CC3)CC2)n1 [Example 4, 1-(2-((4-(3-acetamido-1H-pyrazole-1-carbonyl)piperazin-1-yl)methyl)-5-chlorophenoxy)cyclopropane-1-carboxylic acid]	D (% inhibition is greater than or equal to 0% and less than 25%)	D (% inhibition is greater than or equal to 0% and less than 25%)
0 to 25	> 75	0 to 25	> 75	1 to 10	< 0.1	C[C@@H](c1ccc(Cl)c(N2CCC(F)CC2)c1)N1CCN(C(=O)n2ccc(NS(C)(=O)=O)n2)CC1 [Example 11, (S)—N-(1-(4-(1-(4-chloro-3-(4-fluoropiperidin-1-yl)phenyl)ethyl)piperazine-1-carbonyl)-1H-pyrazol-3-yl)methanesulfonamide]	D (% inhibition is greater than or equal to 0% and less than 25%)	C (% inhibition is greater than or equal to 25% and less than 50%)
0 to 25	> 75	0 to 25	> 75	–	–	CS(=O)(=O)Nc1ccn(C(=O)N2CCN(Cc3ccc(Cl)c(N4CCCC45CC5)c3)CC2)n1 [Example 12, N-(1-(4-(4-chloro-3-(4-azaspiro[2.4]heptan-4-yl)benzyl)piperazine-1-carbonyl)-1H-pyrazol-3-yl)methanesulfonamide]	D (% inhibition is greater than or equal to 0% and less than 25%)	D (% inhibition is greater than or equal to 0% and less than 25%)
0 to 25	> 75	0 to 25	50 to 75	1 to 10	< 0.1	CC(=O)Nc1ccn(C(=O)N2CCC3(CCCN3Cc3cc4cc(C(N)=O)ccc4[nH]3)CC2)n1 [Example 14, 2-((8-(3-acetamido-1H-pyrazole-1-carbonyl)-1,8-diazaspiro[4.5]decan-1-yl)methyl)-1H-indole-5-carboxamide]	D (% inhibition is greater than or equal to 0% and less than 25%)	D (% inhibition is greater than or equal to 0% and less than 25%)
–	–	> 75	> 75	0.1 to 1	< 0.1	CC(=O)Nc1ccn(C(=O)N2CC3CN(Cc4cc(Cl)cc(N5CCCC5)c4)CC3C2)n1 (centres unmarked) [Example 172, N-(1-(5-(3-Chloro-5-(pyrrolidin-1-yl)benzyl)octahydropyrrolo[3,4-c]pyrrole-2-carbonyl)-1H-pyrazol-3-yl)acetamide]	–	–
–	–	> 75	> 75	0.1 to 1	< 0.1	CC(=O)Nc1ccn(C(=O)N2CC3CN(Cc4cccc(Oc5ccccc5)c4)CC3C2)n1 (centres unmarked) [Example 173, N-(1-(5-(3-Phenoxybenzyl)octahydropyrrolo[3,4-c]pyrrole-2-carbonyl)-1H-pyrazol-3-yl)acetamide]	–	–
–	> 75	–	> 75	–	< 0.1	CC(=O)Nc1ccn(C(=O)N2CCC3(CCN(Cc4cc(F)cc(Cl)c4)C3)CC2)n1 [Example 176, N-(1-(2-(3-Chloro-5-fluorobenzyl)-2,8-diazaspiro[4.5]decane-8-carbonyl)-1H-pyrazol-3-yl)acetamide]	–	A (% inhibition is greater than or equal to 75%)
–	> 75	–	> 75	–	< 0.1	C[C@@H]1CN(C(=O)n2ccc(NS(C)(=O)=O)n2)CCN1Cc1ccc(C(F)(F)F)c(N2CC3COCC3C2)c1 (stereo partly drawn) [Example 182, N-(1-((3R)-3-Methyl-4-(3-(tetrahydro-1H-furo[3,4-c]pyrrol-5(3H)-yl)-4-(trifluoromethyl)benzyl)piperazine-1-carbonyl)-1H-pyrazol-3-yl)methanesulfonamide]	–	D (% inhibition is greater than or equal to 0% and less than 25%)
–	> 75	–	> 75	–	–	C[C@H]1CN(C(=O)n2ccc(NS(C)(=O)=O)n2)CCN1Cc1ccc(C(F)(F)F)c(N2CCC(C(F)(F)F)CC2)c1 [Example 185, (S)-N-(1-(3-Methyl-4-(4-(trifluoromethyl)-3-(4-(trifluoromethyl)piperidin-1-yl)benzyl)piperazine-1-carbonyl)-1H-pyrazol-3-yl)methanesulfonamide]	–	A (% inhibition is greater than or equal to 75%)
–	> 75	–	> 75	–	–	C[C@H]1CN(C(=O)n2ccc(NS(C)(=O)=O)n2)CCN1Cc1ccc(Cl)c(N2CCC(F)(F)CC2)c1 [Example 186, (S)-N-(1-(4-(4-Chloro-3-(4,4-difluoropiperidin-1-yl)benzyl)-3-methylpiperazine-1-carbonyl)-1H-pyrazol-3-yl)methanesulfonamide]	–	A (% inhibition is greater than or equal to 75%)
–	> 75	–	> 75	–	–	C[C@H]1CN(C(=O)n2ccc(NS(C)(=O)=O)n2)CCN1Cc1ccc(Cl)c(N2CCC(C(F)(F)F)CC2)c1 [Example 188, (S)-N-(1-(4-(4-Chloro-3-(4-(trifluoromethyl)piperidin-1-yl)benzyl)-3-methylpiperazine-1-carbonyl)-1H-pyrazol-3-yl)methanesulfonamide]	–	A (% inhibition is greater than or equal to 75%)
–	> 75	–	> 75	–	–	C[C@H]1CN(C(=O)n2ccc(NS(C)(=O)=O)n2)CCN1Cc1ccc(Cl)c(N2CC[C@H](F)C2)c1 [Example 189, N-(1-((S)-4-(4-Chloro-3-((S)-3-fluoropyrrolidin-1-yl)benzyl)-3-methylpiperazine-1-carbonyl)-1H-pyrazol-3-yl)methanesulfonamide]	–	A (% inhibition is greater than or equal to 75%)
–	> 75	–	> 75	–	–	CC(C)N1CCN(c2cc(CN3CCN(C(=O)n4ccc(NS(C)(=O)=O)n4)C[C@@H]3C)ccc2Cl)CC1=O [Example 190, (S)-N-(1-(4-(4-Chloro-3-(4-isopropyl-3-oxopiperazin-1-yl)benzyl)-3-methylpiperazine-1-carbonyl)-1H-pyrazol-3-yl)methanesulfonamide]	–	D (% inhibition is greater than or equal to 0% and less than 25%)
–	> 75	–	> 75	–	–	CN(Cc1ccc(Cl)cc1N1CC2COCC2C1)C1(C)CCN(C(=O)n2ccc(NS(C)(=O)=O)n2)CC1 (centres unmarked) [Example 197, N-(1-(4-((4-Chloro-2-(tetrahydro-1H-furo[3,4-c]pyrrol-5(3H)-yl)benzyl)(methyl)amino)-4-methylpiperidine-1-carbonyl)-1H-pyrazol-3-yl)methanesulfonamide]	–	D (% inhibition is greater than or equal to 0% and less than 25%)
